Results from paper PMC9228412, “Synthesis and Activity of Triazole-Adenosine Analogs as Protein Arginine Methyltransferase 5 Inhibitors” (Molecules, 2022).

Assays:
[1] = target: T1, PRMT5 (Homo sapiens, UniProt O14744); assay: scintillation proximity assay (SPA) of PRMT5 methyltransferase activity; type: biochemical; settings: 0.5 μM H4(1–20)K20biotin, 0.5 μM 3H-SAM; for remaining activity at 10 µM: 0.5 h, remaining activity of the enzyme, single point SPA test, inhibitor 10 μM, read-out: Relative Activity of PRMT5 at 10 μM; for IC50: SPA, concentration-dependent, read-out: IC50 PRMT5 (converted)
T1 construct: His-tag; made in house; host or cells: Sf9 insect cells (Bac-to-Bac baculovirus)
T1 sequence (O14744 whole entry): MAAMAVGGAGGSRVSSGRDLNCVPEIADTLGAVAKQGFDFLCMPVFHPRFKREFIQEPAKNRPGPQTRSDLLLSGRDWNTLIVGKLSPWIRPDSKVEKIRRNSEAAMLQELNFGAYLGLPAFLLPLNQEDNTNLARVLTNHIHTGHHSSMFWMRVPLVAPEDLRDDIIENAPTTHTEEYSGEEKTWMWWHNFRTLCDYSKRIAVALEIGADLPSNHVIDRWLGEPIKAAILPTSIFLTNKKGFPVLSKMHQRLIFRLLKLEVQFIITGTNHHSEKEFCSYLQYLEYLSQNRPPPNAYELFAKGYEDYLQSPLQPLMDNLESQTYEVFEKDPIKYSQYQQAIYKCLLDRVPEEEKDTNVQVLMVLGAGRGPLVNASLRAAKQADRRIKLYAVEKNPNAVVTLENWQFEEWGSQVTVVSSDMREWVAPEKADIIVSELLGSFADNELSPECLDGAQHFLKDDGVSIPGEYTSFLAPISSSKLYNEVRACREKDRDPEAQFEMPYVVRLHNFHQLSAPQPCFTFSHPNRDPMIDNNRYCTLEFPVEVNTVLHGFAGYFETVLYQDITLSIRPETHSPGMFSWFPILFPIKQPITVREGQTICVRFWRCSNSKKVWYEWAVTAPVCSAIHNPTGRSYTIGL
T1 sequence (Q9BQA1 whole entry partner): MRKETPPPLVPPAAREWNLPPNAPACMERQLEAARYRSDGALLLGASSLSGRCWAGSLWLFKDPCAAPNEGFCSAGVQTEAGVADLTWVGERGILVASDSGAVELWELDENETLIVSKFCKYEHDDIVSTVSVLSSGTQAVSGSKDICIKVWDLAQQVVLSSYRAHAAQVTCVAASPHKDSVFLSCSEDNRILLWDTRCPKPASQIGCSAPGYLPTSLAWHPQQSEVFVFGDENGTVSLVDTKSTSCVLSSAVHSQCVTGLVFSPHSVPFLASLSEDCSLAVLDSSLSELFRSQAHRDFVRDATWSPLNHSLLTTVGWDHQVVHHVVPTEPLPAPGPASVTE
Procedure: (§1) The methyltransferase activities of PRMT5 and PRMT1 in the absence and presence of the synthetic inhibitors were measured by using the scintillation proximity assay (SPA) protocol (Table 1). In the initial test, the inhibitor concentration was set at 10 μM. H4(1–20)K20biotin [Ac-[…](biotin)-NH2] was used as the peptide substrate, at a final concentration of 0.5 μM. ^3H-SAM was used as the methyl donor at 0.5 μM. SAH was used as a control inhibitor. […] Analysis of the biochemical activity results against PRMT5 disclosed a few interesting structure–activity relationship (SAR) trends. […] If the hydroxyl group of 3 was changed to an amine (6), the potency was improved; however, the selectivity was abolished. Generally, compounds that contained positive charges (6, 20, 21, 22, 24) near the triazole ring had further improved potencies.
Human recombinant His-tag PRMT5 was co-expressed with His-tag MEP50 using the Bac-to-Bac baculovirus expression system (Invitrogen, Life Technologies, Carlsbad, CA, USA) as previously described. Briefly, pFB-LIC-Bse-PRMT5 and pFB-LIC-Bse-MEP50 were heat shock transformed in the DH10Bac E. coli to obtain the recombinant bacmids, and the bacmids were extracted using the PureLink HiPure Plasmid Miniprep Kit (Invitrogen, Thermo Scientific, Carlsbad, CA, USA). The purity and concentration of the plasmid were measured by a Nanodrop. Sf9 cells were cultured in Sf-900 II SFM medium until the cell density reached 1.5 × 10^6 cells/mL and cell viability was more than 95%. Cells were plated in a 6-well tissue culture plate at a density of 4 × 10^5 cells/mL per well. In total, 2 µg of PRMT5 and MEP50 recombinant bacmid were transfected into each well of cells. After 5 h of transfection, the transfection medium was replaced by 2 mL of Sf-900 II SFM + 100 U P/S per well. The medium was collected and centrifuged at 1000 rpm for 5 min to obtain the supernatant P1 viral stock after 7 days of inoculation at 27.5 °C. To obtain a higher titer of viral stock, P1 viral stock was amplified in a 6-well tissue culture plate containing 2 × 10^6 cells per well. In total, 0.1 MOI of P1 virus stock was added into each well. After 7 days of incubation at 27.5 °C, the cell medium was centrifuged at 1000 rpm for 5 min to obtain the P2 viral stock in the supernatant. The Baculovirus plaque assay was performed to determine the viral titer concentration; the target concentration range was 1 × 10^7–1 × 10^8 IFU/mL.
For the expression of PRMT5 and MEP50, Sf9 insect cells were cultured in suspension at 27.5 °C at a speed of 130 rpm in Expression Systems ESF 921 medium with 100 U P/S. In total, 200 mL of Sf9 cell culture was inoculated with PRMT5 and MEP50 P2 viral stocks when the cell density reached 1.5 × 10^6 cells/mL. After incubation for 72 h at 27.5 °C, the cells were harvested and centrifuged. PRMT5 and MEP50 protein were collected in the cell pellet for further purification. Cell pellets were disrupted twice at 100 psi in 25 mL of cell lysis buffer (50 mM Tris pH 8, 300 mM NaCl, 10% glycerol, 0.1% Triton X-100, 1 mM PMSF). Before the Ni-NTA purification, 10 mL of Ni-NTA resin (EMD Millipore, Burlington, MA, USA) was loaded into a 50 mL column and equilibrated with equilibration buffer (50 mM Tris pH 8, 250 mM NaCl, 30 mM Imidazole, 10% glycerol, 1 mM TCEP, 1 mM PMSF). After 60 min of cell lysate centrifugation at 4 °C at 18,000 rpm, the cell lysate supernatant was incubated with the equilibrated nickel resin. The resin was washed with equilibration buffer and protein was eluted with elution buffer (50 mM Tris pH 8, 250 mM NaCl, 300 mM Imidazole, 10% glycerol, 1 mM TCEP, 1 mM PMSF). For the dialysis of protein, elution samples were loaded into a 10,000 MWCO SnakeSkin (Thermo Scientific, Waltham, MA, USA) dialysis bag in the storage buffer (50 mM Tris pH 8, 250 mM NaCl, 10% glycerol, 1 mM TCEP). […]

[2] = target: PRMT1 (Homo sapiens, UniProt Q99873); assay: scintillation proximity assay (SPA) of PRMT1 methyltransferase activity; type: biochemical; settings: for remaining activity at 10 µM: 0.5 h, remaining activity of the enzyme, single point SPA test, inhibitor 10 μM, read-out: Relative Activity of PRMT1 at 10 μM; for IC50: SPA, concentration-dependent, read-out: IC50 PRMT1 (converted)
PRMT1, sequence (Q99873 whole entry, species assumed): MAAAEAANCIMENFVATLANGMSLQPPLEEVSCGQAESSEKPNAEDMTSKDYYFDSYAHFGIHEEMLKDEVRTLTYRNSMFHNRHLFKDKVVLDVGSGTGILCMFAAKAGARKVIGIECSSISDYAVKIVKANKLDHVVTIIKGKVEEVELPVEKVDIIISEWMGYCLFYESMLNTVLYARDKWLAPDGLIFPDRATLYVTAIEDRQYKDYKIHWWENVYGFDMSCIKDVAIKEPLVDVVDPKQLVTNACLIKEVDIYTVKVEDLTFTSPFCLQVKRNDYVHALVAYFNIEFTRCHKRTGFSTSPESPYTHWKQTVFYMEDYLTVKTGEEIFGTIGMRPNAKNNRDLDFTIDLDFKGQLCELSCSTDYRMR
Procedure: as §1
Inhibitor was dissolved in water to create a 10 mM stock concentration. This was then diluted in buffer (50 mM HEPES pH 8, 10 mM NaCl, 0.5 mM EDTA, 0.5 mM DTT in H2O) to create a series of working concentrations centered around an anticipated IC50. [H]^3-SAM and substrate were diluted together in buffer to working concentrations of […], respectively. To each well in a 96-well plate, 6 μL of the inhibitor solution was added, with negative and positive controls receiving buffer. In total, 6 μL of the [H]^3-SAM/substrate solution was then added to each well. The enzyme was then diluted in buffer to a working concentration of 0.83 μM, and 18 μL was added to each well, with negative controls receiving 18 μL of buffer. The plate was covered, and the reaction was allowed to run for 30 min and was then quenched with the addition of 30 μL of 100% iPrOH followed by 60 μL of 50% iPrOH in H2O. In total, 10 μL of 20 mg/mL streptavidin-coated scintillant beads were added and the plate was read using a MicroBeta (Perkin Elmer, Waltham, MA, USA) plate reader. The CPM counts in the absence of an inhibitor for each data set were considered as 100% activity. In the absence of the enzyme and inhibitor, the CPM counts in each data set were defined as background (0%).

remaining activity at 10 µM [1] [%] | IC50 [1] [µM] | remaining activity at 10 µM [2] [%] | IC50 [2] [mM] | Compound
– | 195 | – | > 1 | Nc1ncnc2c1ncn2[C@@H]1O[C@H](Cn2cc(CCO)nn2)[C@@H](O)[C@H]1O [Compound 5, (2R,3R,4S,5R)-2-(6-amino-9H-purin-9-yl)-5-((4-(2-hydroxyethyl)-1H-1,2,3-triazol-1-yl)methyl)tetrahydrofuran-3,4-diol]
61 ± 8 | 1.2 | 96.3 ± 8 | – | NCc1cn(C[C@H]2O[C@@H](n3cnc4c(N)ncnc43)[C@H](O)[C@@H]2O)nn1 [Compound 6, (2R,3R,4S,5R)-2-(6-amino-9H-purin-9-yl)-5-((4-(aminomethyl)-1H-1,2,3-triazol-1-yl)methyl)tetrahydrofuran-3,4-diol]
– | 7.7 | – | > 1 | CC(C)(C)c1cn(C[C@H]2O[C@@H](n3cnc4c(N)ncnc43)[C@H](O)[C@@H]2O)nn1 [Compound 8, (2R,3R,4S,5R)-2-(6-amino-9H-purin-9-yl)-5-((4-(tert-butyl)-1H-1,2,3-triazol-1-yl)methyl)tetrahydrofuran-3,4-diol]
71 ± 17 | – | 103 ± 5.6 | – | Nc1ncnc2c1ncn2C1OC(Cn2cc(CCC(N)c3ccccc3)nn2)C(O)C1O (stereo not shown) [Compound 10]
74 ± 11 | – | 96.9 ± 2.2 | – | Nc1ncnc2c1ncn2[C@@H]1O[C@H](Cn2cc(C(=O)O)nn2)[C@@H](O)[C@H]1O [Compound 11, 1-(((2R,3S,4R,5R)-5-(6-amino-9H-purin-9-yl)-3,4-dihydroxytetrahydrofuran-2-yl)methyl)-1H-1,2,3-triazole-4-carboxylic acid]
73 ± 12 | > 400 | 99.3 ± 6.7 | – | Nc1ncnc2c1ncn2[C@@H]1O[C@H](Cn2cc(CCCC(=O)O)nn2)[C@@H](O)[C@H]1O [Compound 12, 4-(1-(((2R,3S,4R,5R)-5-(6-amino-9H-purin-9-yl)-3,4-dihydroxytetrahydrofuran-2-yl)methyl)-1H-1,2,3-triazol-4-yl)butanoic acid]

Second part, the molecule before the results:

Compound | remaining activity at 10 µM [1] [%] | IC50 [1] [µM] | remaining activity at 10 µM [2] [%] | IC50 [2] [mM]
[N-]=[N+]=NC[C@H]1O[C@@H](n2cnc3c(N)ncnc32)[C@H](O)[C@@H]1O [Compound 1, 5′-azido-5′-deoxyadenosine] | 48 ± 9.7 | 3 | 97.5 ± 7.6 | > 1
Nc1ncnc2c1ncn2[C@@H]1O[C@H](Cn2ccnn2)[C@@H](O)[C@H]1O [Compound 2, (2R,3S,4R,5R)-2-((1H-1,2,3-triazol-1-yl)methyl)-5-(6-amino-9H-purin-9-yl)tetrahydrofuran-3,4-diol] | – | 27 | – | > 1
Nc1ncnc2c1ncn2[C@@H]1O[C@H](Cn2cc(CO)nn2)[C@@H](O)[C@H]1O [Compound 3, (2R,3R,4S,5R)-2-(6-amino-9H-purin-9-yl)-5-((4-(hydroxymethyl)-1H-1,2,3-triazol-1-yl)methyl)tetrahydrofuran-3,4-diol] | – | 4.4 | – | > 1
COCc1cn(C[C@H]2O[C@@H](n3cnc4c(N)ncnc43)[C@H](O)[C@@H]2O)nn1 [Compound 4, (2R,3R,4S,5R)-2-(6-amino-9H-purin-9-yl)-5-((4-(methoxymethyl)-1H-1,2,3-triazol-1-yl)methyl)tetrahydrofuran-3,4-diol] | – | 144 | – | > 1
C[Si](C)(C)c1cn(C[C@H]2O[C@@H](n3cnc4c(N)ncnc43)[C@H](O)[C@@H]2O)nn1 [Compound 7, (2R,3R,4S,5R)-2-(6-amino-9H-purin-9-yl)-5-((4-(trimethylsilyl)-1H-1,2,3-triazol-1-yl)methyl)tetrahydrofuran-3,4-diol] | – | 8.3 | – | > 1
C[Si](C)(C)Cc1cn(C[C@H]2O[C@@H](n3cnc4c(N)ncnc43)[C@H](O)[C@@H]2O)nn1 [Compound 9, (2R,3R,4S,5R)-2-(6-amino-9H-purin-9-yl)-5-((4-((trimethylsilyl)methyl)-1H-1,2,3-triazol-1-yl)methyl)tetrahydrofuran-3,4-diol] | – | > 200 | – | > 1
